Columns and labels:
[1] = test system: C57BL/6J gptΔ mouse embryonic fibroblasts (MEFs); assay: Duplex sequencing, high-resolution mutational spectra of MEFs treated with alkylating agents; type: cell-based; conditions: for predominant mutation type of mutational spectrum: doses generating no more than 50% growth inhibition; for cosine similarity of mutational spectra: with each other, with NDMA spectra from WT liver and lung, Mgmt-deficient liver, and COSMIC SBS11
Method: C57BL/6J gptΔ mouse embryonic fibroblasts (MEFs) were established and maintained in high glucose, GlutaMAX DMEM (Gibco) supplemented with 10% FBS (VWR Life Sciences), sodium pyruvate (1 mM, Gibco), penicillin (100 IU) and streptomycin (100 μg/ml) (Corning) as previously described ([40]). […] For growth-inhibition assays, 2.5 × 10^4 cells were seeded in 6-well plates and incubated overnight. Cells were treated with SN1 alkylating agents as follows. TMZ (Sigma-Aldrich): 50, 100 and 200 μM (stock solutions in DMSO (Sigma-Aldrich)) in FBS-free complete media for 24 h. STZ (Sigma-Aldrich): 500, 1000 and 2000 μM (stock solutions in 0.1 M citrate buffer, pH 4.5) in HBSS, pH 7.4 for 6 h. MNU (Sigma-Aldrich): 125, 250 and 500 μM (stock solutions in 0.1 M citrate buffer, pH 4.5) in HBSS, pH 7.4 for 1 h. After the treatments, cells were washed in PBS (Gibco) and cultured in complete media for another 48 h. Cell growth was analyzed by determining percentages of cell numbers from treatment and untreated control groups by Coulter counter. For gpt assays, 4 × 10^5 cells were seeded into 15 cm tissue culture dishes (4 dishes per group) and treated with TMZ, STZ and MNU, as described above, at 60–70% confluence. Viable cells were harvested and washed twice in PBS.
The gptΔ assay as described above was also performed on MEFs derived from the gptΔ mouse (see above) that were treated with the toxicants studied here. For the cell culture studies, genomic DNA from 2 × 10^6 cells per group was prepared using the MegaLong DNA Isolation Kit (G-Biosciences) according to the manufacturer's instructions.
To determine the identity of mutations and the sequence contexts in which they occur, we utilized a form of error-corrected sequencing called duplex sequencing (DS). Previously, we described how DS can be used directly on genomic samples derived from the gptΔ mouse to yield high-resolution mutational spectra in an unbiased (unselected) manner ([49]). Unlike the traditional gptΔ assay, DS evaluates the mutations throughout the entire 6382 bp transgenic region (which contains the gpt gene), without the need for a phenotypic selection. In the present work, 6.4 kb gpt-containing plasmids from gptΔ mouse livers and cell culture were isolated using a Miniprep Kit (Qiagen) following instructions of the manufacturer. Approximately 6 μg of plasmid DNA was diluted in 1× TE buffer-low EDTA, pH 8 (Thermo Scientific), transferred to a microTUBE AFA Fiber Pre-Slit Snap-Cap (Covaris) and sonicated using a Covaris E220 Focused-ultrasonicator. The following program was used to obtain 300–350 bp fragments: peak incident power = 140 W, duty factor = 10%, cycles per burst = 200, treatment time = 80 s, temperature = 4–7°C. DS libraries for gptΔ C57BL/6J mice and MEFs were prepared using the NEBNext Ultra II DNA Library Prep (E7103, NEB) or as described in Chawanthayatham et al. ([49]) and sequenced on a NextSeq500 or NovaSeq 6000 Illumina platform by using a 150 bp paired-end protocol (MIT BioMicro Center). DS libraries for the gptΔ mouse lungs and Mgmt^−/− mice were prepared using an input of 1 μg or 500 ng genomic DNA, respectively, using a TwinStrand Biosciences, Inc. Mouse Mutagenesis Kit according to the manufacturer's protocol. This kit uses probes that hybridize to 20 genomic regions, each 2.4 kb long. The genomic coordinates are provided in Supplementary Table S1. These probes were purposely selected to map in intronic and intergenic regions, to avoid selection bias. The libraries were sequenced on an Illumina NovaSeq 6000 DNA sequencer on an S4 flow cell using a 150 bp paired-end protocol (MIT BioMicro Center).
For each sample, the two fastq files generated by the Illumina sequencer were converted into an unaligned bam file, using Picard Tools. The resulting bam file was processed using UnifiedConsensusMaker.py (version 3.0) as available from the Kennedy Lab at University of Washington (https://github.com/Kennedy-Lab-UW/Duplex-Sequencing). […]

[2] = test system: human induced pluripotent stem cells; parameters: method as in PMID 30982602; conditions: cited from earlier work

| SMILES | sequence context of mutations [1] | predominant mutation type of mutational spectrum [1] | cosine similarity of mutational spectra [1] | dominant mutation type of mutational spectrum [2] |
| --- | --- | --- | --- | --- |
| CN(N=O)C(N)=O [MNU, N-methyl-N-nitrosourea] | 5’-PuGN-3’ | GC→AT mutations | > 0.9 | AT→GC mutations |
| CN(N=O)C(=O)NC1C(O)OC(CO)C(O)C1O (centres unmarked) [STZ, streptozotocin] | 5’-PuGN-3’ | GC→AT mutations | > 0.9 |  |
| Cn1nnc2c(C(N)=O)ncn2c1=O [TMZ, temozolomide] | 5’-PuGN-3’ | GC→AT mutations | > 0.9 | AT→GC mutations |

— publication PMC10041537, “Molecular origins of mutational spectra produced by the environmental carcinogen N-nitrosodimethylamine and SN1 chemotherapeutic agents” (NAR Cancer, 2023)
